Source: patent US20200325177A1, “METHODS OF MAKING STREPTOGRAMIN COMPOSITIONS AND THE USE THEREOF” (THE REGENTS OF THE UNIVERSITY OF CALIFORNIA, priority 2017, published 2020)
Converted amounts (≈) assume the structure as drawn. Where two headings read alike, the source gives them in different places.

Assays:
Type in all cases: cell-based
E. faecalis = assay: MIC, Gram-positive bacteria: E. faecalis; conditions: Enterococcus faecalis, column 1, read-out: Minimal Inhibitory Concentration (MIC) E. faecalis
E. faecium ATCC 35667 = assay: MIC, Gram-positive bacteria: E. faecium ATCC 35667; conditions: Enterococcus faecium, ATCC35667, column 2, read-out: Minimal Inhibitory Concentration (MIC) E. faecium ATCC 35667
E. faecium VRE; vanA = assay: MIC, Gram-positive bacteria: E. faecium VRE; vanA; conditions: Enterococcus faecium, column 3, read-out: Minimal Inhibitory Concentration (MIC) E. faecium VRE
S. aureus = assay: MIC, Gram-positive bacteria: S. aureus (strains not named); conditions: Staphylococcus aureus, read-out: Minimal Inhibitory Concentration (MIC) S. aureus
[1] = system: S. aureus Vat A streptogramin; assay: MIC, Gram-positive bacteria: S. aureus Vat A streptogramin; conditions: Staphylococcus aureus; Gram-positive; column 5; read-out: Minimal Inhibitory Concentration (MIC) S. aureus Vat A streptogramin
[2] = system: S. aureus Linezolid-resistant; cfr; assay: MIC, Gram-positive bacteria: S. aureus Linezolid-resistant; cfr; conditions: Staphylococcus aureus, column 9, read-out: Minimal Inhibitory Concentration (MIC) S. aureus Linezolid-resistant
S. pneumoniae = assay: MIC, Gram-positive bacteria: S. pneumoniae; conditions: Streptococcus pneumoniae, column 10, read-out: Minimal Inhibitory Concentration (MIC) S. pneumoniae
[3] = system: K. pneumoniae multidrug-resistant; assay: MIC, Gram-negative bacteria: K. pneumoniae multidrug-resistant; conditions: Klebsiella pneumoniae, read-out: Minimal Inhibitory Concentration (MIC) K. pneumoniae multidrug-resistant
P. aeruginosa ATCC 27853 = assay: MIC, Gram-negative bacteria: P. aeruginosa ATCC 27853; conditions: Pseudomonas aeruginosa, ATCC27853, read-out: Minimal Inhibitory Concentration (MIC) P. aeruginosa ATCC 27853
[4] = system: P. aeruginosa MDR clinical isolate; assay: MIC, Gram-negative bacteria: P. aeruginosa MDR clinical isolate; conditions: Pseudomonas aeruginosa, read-out: Minimal Inhibitory Concentration (MIC) P. aeruginosa MDR clinical isolate
H. influenzae ATCC 49247 = assay: MIC, Gram-negative bacteria: H. influenzae ATCC 49247; conditions: Haemophilus influenzae, ATCC49247, read-out: Minimal Inhibitory Concentration (MIC) H. influenzae ATCC 49247
Gram-Negative Organisms = assay: microbe, parasite or virus in culture
[5] = first unnamed S. aureus column (c4)
[6] = fourth unnamed S. aureus column (c8)
[7] = second unnamed S. aureus column (c6)
[8] = third unnamed S. aureus column (c7)
[9] = Acinetobacter baumannii, ATCC19606, read-out: Minimal Inhibitory Concentration (MIC), A. baumannii ATCC 19606
[10] = Escherichia coli, ATCC25922, read-out: Minimal Inhibitory Concentration (MIC), E. coli ATCC 25922
[11] = Escherichia coli, read-out: Minimal Inhibitory Concentration (MIC), E. coli BAS2006, OMP C, OMP F
[12] = Escherichia coli, read-out: Minimal Inhibitory Concentration (MIC), E. coli olC efflux defective
[13] = Escherichia coli, read-out: Minimal Inhibitory Concentration (MIC), E. coli permeability mutant BAS1314, IMP4213ZAB::TN10
[14] = Klebsiella pneumoniae, ATCC43816, read-out: Minimal Inhibitory Concentration (MIC), K. pneumoniae ATCC 43816
[15] = Escherichia coli, read-out: Minimal Inhibitory Concentration (MIC), E. coli ΔompC768, KanR insert

Compound	MIC (E. faecalis) [mg/L]	MIC (E. faecium ATCC 35667) [mg/L]	MIC (E. faecium VRE; vanA) [mg/L]	MIC (S. aureus; [5]) [mg/L]	MIC (S. aureus; [6]) [mg/L]	MIC (S. aureus; [7]) [mg/L]	MIC (S. aureus; [8]) [mg/L]	MIC [1] [mg/L]	MIC [2] [mg/L]	MIC (S. pneumoniae) [mg/L]	MIC [3] [mg/L]	MIC (P. aeruginosa ATCC 27853) [mg/L]	MIC [4] [mg/L]	MIC (H. influenzae ATCC 49247) [mg/L]	MIC (Gram-Negative Organisms; [9]) [mg/L]	MIC (Gram-Negative Organisms; [10]) [mg/L]	MIC (Gram-Negative Organisms; [11]) [mg/L]	MIC (Gram-Negative Organisms; [12]) [mg/L]	MIC (Gram-Negative Organisms; [13]) [mg/L]	MIC (Gram-Negative Organisms; [14]) [mg/L]	further results
CC1=C\[C@@H](O)CC(=O)Cc2nc(co2)C(=O)N2CCC[C@@H]2C(=O)O[C@H]([C@@H](C)COC(=O)Nc2csc(C)n2)[C@H](C)/C=C/C(=O)NC\C=C\1 [SA0110098]	> 64	16 (≈ 23.4 µM)	64 (≈ 93.6 µM)	64 (≈ 93.6 µM)	32 (≈ 46.8 µM)	32 (≈ 46.8 µM)	64 (≈ 93.6 µM)	> 64	> 64	16 (≈ 23.4 µM)	> 64	> 64	> 64	32 (≈ 46.8 µM)	> 64	> 64	16 (≈ 23.4 µM)	2 (≈ 2.92 µM)	8 (≈ 11.7 µM)	> 64	
CC1=C\[C@@H](O)CC(=O)Cc2nc(co2)C(=O)N2CCC[C@@H]2C(=O)O[C@H]([C@@H](C)COC(=O)Nc2cnccn2)[C@H](C)/C=C/C(=O)NC\C=C\1 [SA0110101]	> 64	64 (≈ 96.3 µM)	> 64	> 64	> 64	> 64	> 64	> 64	> 64	32 (≈ 48.1 µM)	> 64	> 64	> 64	64 (≈ 96.3 µM)	> 64	> 64	64 (≈ 96.3 µM)	8 (≈ 12 µM)	16 (≈ 24.1 µM)	> 64	
CC1=C\[C@@H](O)CC(=O)Cc2nc(co2)C(=O)N2CCC[C@@H]2C(=O)O[C@H]([C@@H](C)COC(=O)Nc2ccn(C)n2)[C@H](C)/C=C/C(=O)NC\C=C\1 [SA0110113]	> 64	64 (≈ 96 µM)	> 64	> 64	> 64	> 64	> 64	> 64	> 64	8 (≈ 12 µM)	> 64	> 64	> 64	64 (≈ 96 µM)	> 64	> 64	64 (≈ 96 µM)	8 (≈ 12 µM)	16 (≈ 24 µM)	> 64	
CC1=C\[C@@H](O)CC(=O)Cc2nc(co2)C(=O)N2CCC[C@@H]2C(=O)O[C@H]([C@@H](C)COC(=O)Nc2cc(C)on2)[C@H](C)/C=C/C(=O)NC\C=C\1 [SA0110115]	> 64	32 (≈ 47.9 µM)	> 64	> 64	64 (≈ 95.8 µM)	> 64	> 64	> 64	> 64	16 (≈ 24 µM)	> 64	> 64	> 64	64 (≈ 95.8 µM)	> 64	> 64	64 (≈ 95.8 µM)	8 (≈ 12 µM)	16 (≈ 24 µM)	> 64	
CC1=C\[C@@H](O)CC(=O)Cc2nc(co2)C(=O)N2CCC[C@@H]2C(=O)O[C@H]([C@@H](C)COC(=O)Nc2ccc3ccccc3n2)[C@H](C)/C=C/C(=O)NC\C=C\1 [SA0110117]	> 64	16 (≈ 22.4 µM)	32 (≈ 44.8 µM)	16 (≈ 22.4 µM)	16 (≈ 22.4 µM)	16 (≈ 22.4 µM)	32 (≈ 44.8 µM)	> 64	> 64	4 (≈ 5.6 µM)	> 64	> 64	> 64	> 64	> 64	> 64	8 (≈ 11.2 µM)	2 (≈ 2.8 µM)	4 (≈ 5.6 µM)	> 64	
CC1=C\[C@@H](O)CC(=O)Cc2nc(co2)C(=O)N2CCC[C@@H]2C(=O)O[C@H]([C@@H](C)COC(=O)Nc2cc3ccccc3cn2)[C@H](C)/C=C/C(=O)NC\C=C\1 [SA0110118]	> 64	4 (≈ 5.6 µM)	16 (≈ 22.4 µM)	8 (≈ 11.2 µM)	8 (≈ 11.2 µM)	8 (≈ 11.2 µM)	16 (≈ 22.4 µM)	> 64	> 64	2 (≈ 2.8 µM)	> 64	> 64	> 64	> 64	> 64	> 64	8 (≈ 11.2 µM)	2 (≈ 2.8 µM)	2 (≈ 2.8 µM)	> 64	
CC1=C\[C@@H](O)CC(=O)Cc2nc(co2)C(=O)N2CCC[C@@H]2C(=O)O[C@H]([C@@H](C)COC(=O)Nc2ccccn2)[C@H](C)/C=C/C(=O)NC\C=C\1 [SA0110120]	> 64	32 (≈ 48.2 µM)	64 (≈ 96.4 µM)	64 (≈ 96.4 µM)	32 (≈ 48.2 µM)	64 (≈ 96.4 µM)	> 64	> 64	> 64	16 (≈ 24.1 µM)	> 64	> 64	> 64	32 (≈ 48.2 µM)	> 64	> 64	32 (≈ 48.2 µM)	4 (≈ 6.03 µM)	8 (≈ 12.1 µM)	> 64	
CC1=C\[C@@H](O)CC(=O)Cc2nc(co2)C(=O)N2CCC[C@@H]2C(=O)O[C@H]([C@@H](C)CN2CCOCC2)[C@H](C)/C=C/C(=O)NC\C=C\1 [SA0110161]	> 64	> 64	> 64	> 64	> 64	> 64	> 64	> 64	> 64	> 64	> 64	> 64	> 64	> 64	> 64	> 64	> 64	> 64	> 64	> 64	MIC (Gram-Negative Organisms; [15]): > 64 mg/L
CC1=C\[C@@H](O)CC(=O)Cc2nc(co2)C(=O)N2CCC[C@@H]2C(=O)O[C@H]([C@H](C)CO)[C@H](C)/C=C/C(=O)NC\C=C\1 [SA0110170]	> 64	> 64	> 64	> 64	> 64	> 64	> 64	> 64	> 64	64 (≈ 118 µM)	> 64	> 64	> 64	32 (≈ 58.9 µM)	> 64	> 64	> 64	32 (≈ 58.9 µM)	32 (≈ 58.9 µM)	> 64	MIC (Gram-Negative Organisms; [15]): > 64 mg/L
CC1=C\[C@@H](O)CC(=O)Cc2nc(co2)C(=O)N2CCC[C@@H]2C(=O)O[C@H]([C@H](C)COC(=O)Nc2ccc(C)cc2)[C@H](C)/C=C/C(=O)NC\C=C\1 [SA0110184]	> 64	16 (≈ 23.6 µM)	16 (≈ 23.6 µM)	16 (≈ 23.6 µM)	16 (≈ 23.6 µM)	16 (≈ 23.6 µM)	32 (≈ 47.3 µM)	> 64	> 64	32 (≈ 47.3 µM)	> 64	> 64	> 64	16 (≈ 23.6 µM)	> 64	> 64	> 64	4 (≈ 5.91 µM)	2 (≈ 2.96 µM)	> 64	MIC (Gram-Negative Organisms; [15]): > 64 mg/L
COc1ccc(NC(=O)OC[C@@H](C)[C@H]2OC(=O)[C@H]3CCCN3C(=O)c3coc(n3)CC(=O)C[C@H](O)/C=C(C)/C=C/CNC(=O)/C=C/[C@H]2C)cc1 [SA0110185]	> 64	16 (≈ 23.1 µM)	32 (≈ 46.2 µM)	32 (≈ 46.2 µM)	16 (≈ 23.1 µM)	16 (≈ 23.1 µM)	32 (≈ 46.2 µM)	> 64	> 64	32 (≈ 46.2 µM)	> 64	> 64	> 64	16 (≈ 23.1 µM)	> 64	> 64	64 (≈ 92.4 µM)	2 (≈ 2.89 µM)	4 (≈ 5.77 µM)	> 64	MIC (Gram-Negative Organisms; [15]): > 64 mg/L
